Data published in ChEMBL document CHEMBL1154817, “Tartrolon D, a cytotoxic macrodiolide from the marine-derived actinomycete Streptomyces sp. MDG-04-17-069” (J Nat Prod, 2009).
In brackets after ≈: the same amount, converted by molar mass.

Key:
[1] = system: A549; assay: Cytotoxicity against human A549 cells after 72 hrs by sulforhodamine B assay; type: functional; conditions: A549, 72 h
[2] = system: HT-29; assay: Cytotoxicity against human HT-29 cells after 72 hrs by sulforhodamine B assay; type: functional; conditions: HT-29, 72 h
[3] = system: MDA-MB-231; assay: Cytotoxicity against human MDA-MB-231 cells after 72 hrs by sulforhodamine B assay; type: functional; conditions: MDA-MB-231, 72 h
[4] = system: L929; assay: Cytotoxicity against mouse L929 cells; type: functional
[5] = Inhibition of hypoxia-induced HIF1 transcriptional activity

Compound	GI50 [1] [nM]	TGI [1] [nM]	GI50 [2] [nM]	TGI [2] [nM]	GI50 [3] [nM]	TGI [3] [nM]	MIC [4] [µg/mL]	IC50 [5] [µg/mL]	LC50 [1] [nM]	LC50 (concentration killing 50% of cells) [2] [nM]	LC50 (50% lethal concentration) [3] [nM]
COc1cccc2c1C(=O)c1c(O)c3c(c(O)c1C2=O)C[C@@](O)(C(C)=O)C[C@@H]3O[C@H]1C[C@H](N)[C@H](O)[C@H](C)O1 [DAUNORUBICIN]	80	170	70	330	20	120					
C[C@@H]1C(=O)C[C@@H](O)CC/C=C/C=C\CC[C@H](C)OC(=O)C(O)[C@]2(O)O[C@@H](CC[C@H]2C)[C@H](C)C(=O)C[C@@H](O)CC/C=C/C=C\CC[C@H](C)OC(=O)C(O)[C@]2(O)O[C@H]1CC[C@H]2C (some centres not stated) [TARTROLON A]							70 (≈ 82.4 µM)				
C[C@@H]1C(=O)C[C@@H](O)CC/C=C/C=C\CC[C@H](C)OC(=O)[C@@H]2O[B-]34O[C@@H](C(=O)O[C@@H](C)CC/C=C\C=C\CC[C@H](O)CC(=O)[C@@H](C)[C@@H]5CC[C@](C)(O)[C@]2(O5)O3)[C@@]2(O[C@H]1CC[C@]2(C)O)O4 [TARTROLON C]								0.17			
C[C@@H]1CC[C@H]2CC(=O)C[C@@H](O)CC/C=C/C=C\CC[C@H](C)OC(=O)C(O)[C@]3(O)O[C@@H](CC[C@H]3C)CC(=O)C[C@@H](O)CC/C=C/C=C\CC[C@H](C)OC(=O)C(O)[C@]1(O)O2 (some centres not stated) [TARTROLON D]	160	1460	310	1710	790	3410			8050	8410	11000
